Test results as given in US20070212700A1, “Methods of using and analyzing biological sequence data” (THE BOARD OF REGENTS OF THE UNIVERSITY OF TEXAS SYSTEM, priority 2005, published 2007).

Assays:
[1] = system: biotinylated oriented peptide libraries (group I PPxY, group II PPLP, group III PPR, group IV pS/pT-P); assay: Oriented peptide library binding assay (ELISA) for WW domain specificity
Text: FIGS. 25A-D: Assays for binding affinity and specificity in WW domains. FIG. 25A: five N-terminal biotinylated oriented peptide libraries were constructed to present either a proline-only control (biotin-Z-GMAxxxxPxxxxAKKK (SEQ ID NO:162)) or the four different characteristic WW domain binding motifs: group I-oriented (biotin-Z-GMAxxxPPxYxxxAKKK-C (SEQ ID NO:163)), group II-oriented (biotin-Z-GMAxxxPPLPxxxAKKK (SEQ ID NO:164)), group III-oriented (biotin-Z-GMAxxxPPRxxxAKKK (SEQ ID NO:165)), and group IV-oriented (biotin-Z-GMAxxxxpSPxxxxAKKK (SEQ ID NO:166)), where Z is 6-aminohexanoic acid, pS is phosphoserine, and x denotes all amino acids except Cys. Binding to these peptides indicte affinity for the consensus motifes listed in FIG. 25A (SEQ ID NO:167-171). […] FIG. 25C: binding specificity of artificial WW domains from the CC55 set. Binding is reported in fold above background binding in the absence of target peptides. Shown are the mean and standard deviation of at least four independent assays. FIG. 25D: the binding specificity of additional artificial and natural WW domains.
An oriented peptide library binding assay was developed for measuring WW domain specificity, and a set of natural and artificial sequences was studied. Four biotinylated degenerate peptide libraries were constructed, each oriented around one group-specific WW recognition motif, and binding was detected using an ELISA assay (see FIGS. 25A and 25B). For example, the group I oriented peptide library was biotin-Z-GMAxxxPPxYxxxAKKK (SEQ ID NO:163), where Z is 6-aminohexanoic acid and x stands for any amino acid except cysteine (theoretical degeneracy of 8.9×10^8 sequences). A fifth proline-oriented library was also made as a control for non-specific binding. Natural WW domains that folded in the work described above were subjected to this assay. […] Similarly, the assay confirms known group III (FE65) and IV (Pin1) domains.

[2] = system: PPxY-containing peptide; assay: Peptide binding to wild-type and mutant Nedd4.3 WW domains by isothermal titration calorimetry (double mutant cycle); conditions: Nedd4.3 WW domain
Text: FIGS. 6A-C: A spatially distributed network underlying WW specificity. FIG. 6A: two views of the Nedd4.3 WW domain (in blue CPK), with residues comprising the cluster of eight co-evolving residues as red CPK with a transparent van der Waals surface. The cluster forms a physically connected network that links binding site residues at positions 21, 23, and 28 with the opposite side residues at positions 3 and 4 through a few intervening residues at positions 6, 8, and 22. FIG. 6B: the thermodynamic mutant cycle formalism for measuring energetic coupling between a pair of mutations. The method involves measuring equilibrium dissociation constants for peptide binding for four proteins: wild-type (WT), a mutation at one site (M1), a mutation at a second site (M2), and the double mutation M1, M2. The fold effect of M1 is calculated for the wild type background (X1) or for the background of the second mutation (X2). The thermodynamic coupling parameter Ω is defined as the ratio of these two fold effects (X1/X2)— the degree to which the effect of one mutation depends on the second. FIG. 6C: double mutant cycle analysis of co-evolving positions in the N39 (Nedd4.3) WW domain. […] Peptide binding to wild-type and mutant WW domains was measured using isothermal titration calorimetery. […]

## FE65: natural WW domain, known group III (SDLPAGWMRVQDTSGTYYWHIPTGTTQWEPPGR)
[1]
  binding specificity / binding class: group III

## CC55-15: artificial WW domain from the CC55 set (SEQ ID NO:35) (AGLPQGWEAAFDNSGAVYYVNPNTGKTQWERPCLEN)
[1]
  binding specificity / binding class: group III binding profile

## L3A: alanine mutant at position 3 of the Nedd4.3 WW domain (GPAPPGWEERTHTDGRVFFINHNIKKTQWEDPRM)
[2]; PPxY-containing peptide, ITC
  fold effect of single mutation on peptide binding relative to wild-type: 5.15+/−0.99 fold
[2]; mutant cycle
  effect of mutation in the background of T28A: diminished

## Nedd4.3: natural group I WW domain, Nedd4.3 (N39) (GPLPPGWEERTHTDGRVFFINHNIKKTQWEDPRM)
[1]
  binding specificity / binding class: specific interaction with the PPxY-containing sequences
